ChEMBL document CHEMBL1129358, “Esters and amides of 6-(chloromethyl)-2-oxo-2H-1-benzopyran-3-carboxylic acid as inhibitors of alpha-chymotrypsin: significance of the "aromatic" nature of the novel ester-type coumarin for strong inhibitory activity” (J Med Chem, 1996)
Activity calls are given as the source filed them. No cut-off for these calls is given here.

Legend:
[1] = molecular target: Chymotrypsinogen A (Bos taurus) (UniProt P00766); assay: Compound was tested for the Inactivation of alpha-chymotrypsin
[2] = molecular target: Chymotrypsinogen A (Bos taurus) (UniProt P00766); assay: Ratio between k inactivation and KI of alpha-chymotrypsin
[3] = molecular target: T1, Neutrophil elastase (Homo sapiens) (UniProt P08246); assay: Ratio between k observed and KI of Human leukocyte elastase (HEL);[…]
T1 sequence (whole entry): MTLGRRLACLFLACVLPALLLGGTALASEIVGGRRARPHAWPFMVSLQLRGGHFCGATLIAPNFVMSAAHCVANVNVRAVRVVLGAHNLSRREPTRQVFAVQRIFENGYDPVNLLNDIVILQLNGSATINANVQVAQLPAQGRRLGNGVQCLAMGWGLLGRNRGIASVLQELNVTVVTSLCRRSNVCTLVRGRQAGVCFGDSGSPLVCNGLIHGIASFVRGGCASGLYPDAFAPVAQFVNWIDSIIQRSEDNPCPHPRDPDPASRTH

Chymotrypsinogen A = Chymotrypsinogen A (Bos taurus, UniProt P00766); assay: Compound was tested for the binding affinity against alpha-chymotrypsin
[4] = system: alpha-chymotrypsin (Bos taurus); assay: Ratio between k observed and KI of bovine alpha-chymotrypsin at 20 degree C
[5] = molecular target: Chymotrypsinogen A (Bos taurus) (UniProt P00766); assay: Ratio between k inactivation and KI of alpha-chymotrypsin; No inhibition
[6] = molecular target: T1, Neutrophil elastase (Homo sapiens); assay: Ratio between k observed and KI of Human leukocyte elastase (HEL)

Row | Compound | K inact/Ki [2] | K obs / 1 [3] | also measured
1 | CC(C)OC(=O)c1cc2cc(CCl)ccc2oc1=O | 687 M⁻¹ s⁻¹ | inactive | K inact [1]: 0.011 s⁻¹; Ki (Chymotrypsinogen A): 16000 nM
2 | O=c1ccc2cc(CBr)ccc2o1 |  |  | K obs / 1 [4]: 12.5 M⁻¹ s⁻¹
3 | O=C(O)c1cc2cc(CCl)ccc2oc1=O |  | inactive | K inact/Ki [5]: inactive
4 | Cc1cc(OC(=O)c2cc3cc(CCl)ccc3oc2=O)ccc1Cl | 7550 M⁻¹ s⁻¹ |  | K obs / 1 [6]: 90 M⁻¹ s⁻¹
5 | Cc1ccc(OC(=O)c2cc3cc(CCl)ccc3oc2=O)cc1 | 685 M⁻¹ s⁻¹ | inactive | 
6 | CCCCCNC(=O)c1cc2cc(CCl)ccc2oc1=O |  | inactive | K inact/Ki [5]: inactive
7 | O=C(NCc1ccccc1)c1cc2cc(CCl)ccc2oc1=O | 24 M⁻¹ s⁻¹ |  | K obs / 1 [6]: 58 M⁻¹ s⁻¹
8 | O=C(Oc1ccccc1)c1cc2cc(CCl)ccc2oc1=O | 100000 M⁻¹ s⁻¹ |  | K inact [1]: 0.034 s⁻¹; K obs / 1 [6]: 23 M⁻¹ s⁻¹; Ki (Chymotrypsinogen A): 340 nM
9 | COC(=O)C(Cc1ccccc1)NC(=O)c1cc2cc(CCl)ccc2oc1=O (stereo unspecified) | 80 M⁻¹ s⁻¹ | inactive | 
10 | O=C(Oc1ccc(Cl)cc1)c1cc2cc(CCl)ccc2oc1=O | 330 M⁻¹ s⁻¹ | inactive | 
11 | O=C(NCCc1ccccc1)c1cc2cc(CCl)ccc2oc1=O | 6 M⁻¹ s⁻¹ | inactive | 
12 | CCOC(=O)c1cc2cc(CCl)ccc2oc1=O | 220 M⁻¹ s⁻¹ | inactive | K inact [1]: 0.013 s⁻¹; Ki (Chymotrypsinogen A): 59000 nM
13 | COC(=O)CNC(=O)c1cc2cc(CCl)ccc2oc1=O | 12 M⁻¹ s⁻¹ | inactive | 
14 | O=C(Oc1ccccc1Cl)c1cc2cc(CCl)ccc2oc1=O | 48100 M⁻¹ s⁻¹ |  | K inact [1]: 0.038 s⁻¹; K obs / 1 [6]: 23 M⁻¹ s⁻¹; Ki (Chymotrypsinogen A): 790 nM
15 | O=C(Oc1cccc([N+](=O)[O-])c1)c1cc2cc(CCl)ccc2oc1=O | 11300 M⁻¹ s⁻¹ |  | K obs / 1 [6]: 500 M⁻¹ s⁻¹
16 | O=C(Oc1ccccc1I)c1cc2cc(CCl)ccc2oc1=O | 80000 M⁻¹ s⁻¹ |  | K inact [1]: 0.02 s⁻¹; K obs / 1 [6]: 85 M⁻¹ s⁻¹; Ki (Chymotrypsinogen A): 250 nM

Row | Compound | K inact/Ki [2] | K obs / 1 [3] | also measured
17 | O=C(Oc1ccc(I)cc1)c1cc2cc(CCl)ccc2oc1=O | 1780 M⁻¹ s⁻¹ | inactive | 
18 | O=C(Oc1cccc(I)c1)c1cc2cc(CCl)ccc2oc1=O | 72100 M⁻¹ s⁻¹ |  | K obs / 1 [6]: 85 M⁻¹ s⁻¹
19 | CNC(=O)c1cc2cc(CCl)ccc2oc1=O |  | inactive | K inact/Ki [5]: inactive
20 | O=C(OCc1ccccc1)c1cc2cc(CCl)ccc2oc1=O | 186 M⁻¹ s⁻¹ | inactive | 
21 | Cc1ccccc1OC(=O)c1cc2cc(CCl)ccc2oc1=O | 114000 M⁻¹ s⁻¹ | inactive | K inact [1]: 0.043 s⁻¹; Ki (Chymotrypsinogen A): 380 nM
22 | CCCCCOC(=O)c1cc2cc(CCl)ccc2oc1=O | 12 M⁻¹ s⁻¹ | inactive | 
23 | CCCCCCCCCCNC(=O)c1cc2cc(CCl)ccc2oc1=O |  | inactive | 
24 | O=C(Oc1cccc(Cl)c1)c1cc2cc(CCl)ccc2oc1=O | 763000 M⁻¹ s⁻¹ |  | K obs / 1 [6]: 630 M⁻¹ s⁻¹
25 | COC(=O)c1cc2cc(CCl)ccc2oc1=O | 110 M⁻¹ s⁻¹ | inactive | 
26 | O=C(Nc1ccccc1)c1cc2cc(CCl)ccc2oc1=O | 32 M⁻¹ s⁻¹ | inactive | 
27 | Cc1ccc2oc(=O)c(C(=O)Oc3ccccc3)cc2c1 |  |  | K obs / 1 [6]: 330 M⁻¹ s⁻¹; K inact/Ki [5]: inactive
28 | CC(C)NC(=O)c1cc2cc(CCl)ccc2oc1=O |  | inactive | K inact/Ki [5]: inactive
29 | C=CCOC(=O)c1cc2cc(CCl)ccc2oc1=O | 424 M⁻¹ s⁻¹ | inactive | K inact [1]: 0.014 s⁻¹; Ki (Chymotrypsinogen A): 33000 nM
30 | Cc1cccc(OC(=O)c2cc3cc(CCl)ccc3oc2=O)c1 | 71800 M⁻¹ s⁻¹ | inactive | 
31 | CCCCCCCCOC(=O)c1cc2cc(CCl)ccc2oc1=O | 190 M⁻¹ s⁻¹ | inactive | 
32 | C=CCNC(=O)c1cc2cc(CCl)ccc2oc1=O | 80 M⁻¹ s⁻¹ | inactive | 
